The source made the active and inactive calls. The rule behind the calls is not given here.

The values below come from PubChem BioAssay AID1745844 (Carcinogenic Potency Database (CPDB), 2022).

This data set deals with rodent lifetime carcinogenesis bioassay, tumor incidence TD50. The experiment in a line: chronic cancer bioassays in animals – CPDB, compiled studies (AID 1745844).

As to `Oc1ccccc1O`, the TD50 was 17300 mg/kg/day (mouse, strain B6C3F1, females, in feed, site: forestomach, lesion: papilloma, dosed 96 weeks, study length 96 weeks); 17300 mg/kg/day (mouse, strain B6C3F1, females, in feed, site: liver, lesion: hyperplastic nodule, dosed 96 weeks, study length 96 weeks); 471 mg/kg/day (mouse, strain B6C3F1, females, in feed, site: stomach, glandular, lesion: adenoma, dosed 96 weeks, study length 96 weeks); 2460 mg/kg/day (mouse, strain B6C3F1, males, in feed, site: all sites, lesion: lymphoma and leukemia, combined, dosed 96 weeks, study length 96 weeks); 16500 mg/kg/day (mouse, strain B6C3F1, males, in feed, site: forestomach, lesion: papilloma, dosed 96 weeks, study length 96 weeks); 16500 mg/kg/day (mouse, strain B6C3F1, males, in feed, site: lung, lesion: adenoma, dosed 96 weeks, study length 96 weeks). Moreover, the TD50 (mouse, strain B6C3F1, males, in feed, site: stomach, glandular, lesion: adenoma, dosed 96 weeks, study length 96 weeks) is 165 mg/kg/day; the TD50 (rat, strain Crj:Wistar, males, in feed, site: forestomach, lesion: squamous-cell carcinoma, dosed 104 weeks, study length 104 weeks) was found to be 6470 mg/kg/day; the TD50 (rat, strain Crj:Wistar, males, in feed, site: forestomach, lesion: squamous-cell papilloma, dosed 104 weeks, study length 104 weeks) is 3180 mg/kg/day; the TD50 (rat, strain Crj:Wistar, males, in feed, site: liver, lesion: hepatocellular carcinoma, dosed 104 weeks, study length 104 weeks) is 6470 mg/kg/day; the TD50 (rat, strain Crj:Wistar, males, in feed, site: liver, lesion: hyperplastic nodule, dosed 104 weeks, study length 104 weeks) worked out at 3180 mg/kg/day; the TD50 (rat, strain Crj:Wistar, males, in feed, site: stomach, glandular, lesion: adenocarcinoma, dosed 104 weeks, study length 104 weeks) is 200 mg/kg/day. Moreover, the TD50 runs as follows: (rat, strain Crj:Wistar, males, in feed, site: stomach, glandular, lesion: adenoma, dosed 104 weeks, study length 104 weeks) 64.5 mg/kg/day; (rat, strain Crj:Wistar, males, in feed, site: stomach, glandular, lesion: sarcoma, dosed 104 weeks, study length 104 weeks) 2080 mg/kg/day; (rat, strain F344/DuCrj, females, in feed, site: stomach, glandular, lesion: adenocarcinoma, dosed 104 weeks, study length 104 weeks) 490 mg/kg/day; (rat, strain F344/DuCrj, males, in feed, site: forestomach, lesion: carcinoma, in situ, dosed 51 weeks, study length 52 weeks) 833 mg/kg/day; (rat, strain F344/DuCrj, males, in feed, site: forestomach, lesion: papilloma, dosed 51 weeks, study length 52 weeks) 833 mg/kg/day; (rat, strain F344/DuCrj, males, in feed, site: forestomach, lesion: papilloma, dosed 104 weeks, study length 104 weeks) 2960 mg/kg/day. Further, the TD50 was 833 mg/kg/day (rat, strain F344/DuCrj, males, in feed, site: forestomach, lesion: squamous-cell papilloma, dosed 51 weeks, study length 52 weeks); 3300 mg/kg/day (rat, strain F344/DuCrj, males, in feed, site: forestomach, lesion: squamous-cell papilloma, dosed 104 weeks, study length 104 weeks); 1180 mg/kg/day (rat, strain F344/DuCrj, males, in feed, site: pancreas, lesion: acinar-cell adenoma, dosed 104 weeks, study length 104 weeks); 3320 mg/kg/day (rat, strain F344/DuCrj, males, in feed, site: stomach, glandular, pyloric region, lesion: adenocarcinoma, dosed 104 weeks, study length 104 weeks); 43.5 mg/kg/day (rat, strain F344/DuCrj, males, in feed, site: stomach, glandular, pyloric region, lesion: adenoma, dosed 104 weeks, study length 104 weeks); 1940 mg/kg/day (rat, strain F344/DuCrj, males, in feed, site: stomach, glandular, pyloric region, lesion: sarcoma, dosed 104 weeks, study length 104 weeks). Further, the TD50 was 387 mg/kg/day (rat, strain F344/DuCrj, males, in feed, site: stomach, glandular, lesion: adenocarcinoma, dosed 48 weeks, study length 96 weeks); 130 mg/kg/day (rat, strain F344/DuCrj, males, in feed, site: stomach, glandular, lesion: adenocarcinoma, dosed 51 weeks, study length 51 weeks); 206 mg/kg/day (rat, strain F344/DuCrj, males, in feed, site: stomach, glandular, lesion: adenocarcinoma, dosed 72 weeks, study length 72 weeks); 202 mg/kg/day (rat, strain F344/DuCrj, males, in feed, site: stomach, glandular, lesion: adenocarcinoma, dosed 72 weeks, study length 96 weeks); 141 mg/kg/day (rat, strain F344/DuCrj, males, in feed, site: stomach, glandular, lesion: adenocarcinoma, dosed 96 weeks, study length 96 weeks); 286 mg/kg/day (rat, strain F344/DuCrj, males, in feed, site: stomach, glandular, lesion: adenocarcinoma, dosed 104 weeks, study length 104 weeks). Besides, the TD50 runs as follows: (rat, strain Fischer 344, males, in drinking water, site: prostate, lesion: carcinoma, in situ, dosed 78 weeks, study length 78 weeks) 236 mg/kg/day (inactive); (rat, strain LEW/Crj (Lewis), males, in feed, site: stomach, glandular, lesion: adenocarcinoma, dosed 104 weeks, study length 104 weeks) 166 mg/kg/day; (rat, strain LEW/Crj (Lewis), males, in feed, site: stomach, glandular, lesion: adenoma, dosed 104 weeks, study length 104 weeks) 64.5 mg/kg/day; (rat, strain LEW/Crj (Lewis), males, in feed, site: stomach, glandular, lesion: sarcoma, dosed 104 weeks, study length 104 weeks) 2080 mg/kg/day; (rat, strain SD(Crj:CD) Sprague-Dawley, males, in feed, site: forestomach, lesion: squamous-cell carcinoma, dosed 104 weeks, study length 104 weeks) 6470 mg/kg/day; (rat, strain SD(Crj:CD) Sprague-Dawley, males, in feed, site: forestomach, lesion: squamous-cell papilloma, dosed 104 weeks, study length 104 weeks) 983 mg/kg/day. Also, the TD50 is, setting by setting: (rat, strain SD(Crj:CD) Sprague-Dawley, males, in feed, site: stomach, glandular, lesion: adenocarcinoma, dosed 104 weeks, study length 104 weeks) 151 mg/kg/day; (rat, strain WKY/NCrj (Wistar), males, in feed, site: forestomach, lesion: squamous-cell papilloma, dosed 104 weeks, study length 104 weeks) 6470 mg/kg/day; (rat, strain WKY/NCrj (Wistar), males, in feed, site: liver, lesion: several types, types named in the paper, dosed 104 weeks, study length 104 weeks) 12400 mg/kg/day; (rat, strain WKY/NCrj (Wistar), males, in feed, site: stomach, glandular, lesion: adenocarcinoma, dosed 104 weeks, study length 104 weeks) 2080 mg/kg/day. Further, the carcinogen call was “positive” (rat, strain F344/DuCrj, males, in feed, site: stomach, glandular, lesion: adenoma, dosed 48 weeks, study length 96 weeks); “positive” (rat, strain F344/DuCrj, males, in feed, site: stomach, glandular, lesion: adenoma, dosed 51 weeks, study length 51 weeks); “positive” (rat, strain F344/DuCrj, males, in feed, site: stomach, glandular, lesion: adenoma, dosed 51 weeks, study length 52 weeks); “positive” (rat, strain F344/DuCrj, males, in feed, site: stomach, glandular, lesion: adenoma, dosed 72 weeks, study length 72 weeks); “positive” (rat, strain F344/DuCrj, males, in feed, site: stomach, glandular, lesion: adenoma, dosed 72 weeks, study length 96 weeks); “positive” (rat, strain F344/DuCrj, males, in feed, site: stomach, glandular, lesion: adenoma, dosed 96 weeks, study length 96 weeks). Further, the carcinogen call (rat, strain F344/DuCrj, males, in feed, site: stomach, glandular, lesion: several types, types named in the paper, dosed 51 weeks, study length 52 weeks) is “positive”; the carcinogen call (rat, strain Fischer 344, males, in drinking water, site: urinary bladder, lesion: one or several types, types not named, dosed 78 weeks, study length 78 weeks) was “negative (inactive)”; the carcinogen call (rat, strain SD(Crj:CD) Sprague-Dawley, males, in feed, site: stomach, glandular, lesion: adenoma, dosed 104 weeks, study length 104 weeks) is “positive”; the carcinogen call (rat, strain WKY/NCrj (Wistar), males, in feed, site: stomach, glandular, lesion: adenoma, dosed 104 weeks, study length 104 weeks) was “positive”.
For `CN(C)C(=O)Nc1cccc(C(F)(F)F)c1`, the TD50 by setting is: (mouse, strain B6C3F1, females, in feed, site: any site (literature study), lesion: several types, types named in the paper, dosed 103 weeks, study length 103 weeks) 369 mg/kg/day (inactive); (mouse, strain B6C3F1, females, in feed, site: liver, lesion: hepatocellular adenoma + hepatocellular carcinoma + neoplastic nodule, dosed 103 weeks, study length 103 weeks) 1230 mg/kg/day; (mouse, strain B6C3F1, males, in feed, site: any site (literature study), lesion: several types, types named in the paper, dosed 103 weeks, study length 103 weeks) 265 mg/kg/day; (mouse, strain B6C3F1, males, in feed, site: liver, lesion: hepatocellular adenoma + hepatocellular carcinoma + neoplastic nodule, dosed 103 weeks, study length 103 weeks) 229 mg/kg/day; (mouse, strain B6C3F1, males, in feed, site: liver, lesion: hepatocellular adenoma + hepatocellular carcinoma, dosed 103 weeks, study length 103 weeks) 229 mg/kg/day; (mouse, strain B6C3F1, males, in feed, site: lung, lesion: alveolar/bronchiolar adenoma + alveolar/bronchiolar carcinoma, dosed 103 weeks, study length 103 weeks) 1420 mg/kg/day. The TD50 (rat, strain Fischer 344, males, in feed, site: liver, lesion: hepatocellular adenoma + hepatocellular carcinoma + neoplastic nodule, dosed 103 weeks, study length 104 weeks) was 55.4 mg/kg/day and the TD50 (rat, strain Fischer 344, males, in feed, site: liver, lesion: neoplastic nodule, dosed 103 weeks, study length 104 weeks) is 55.4 mg/kg/day (inactive). For the same molecule, the carcinogen call (rat, strain Fischer 344, females, in feed, site: any site (literature study), lesion: several types, types named in the paper, dosed 103 weeks, study length 104 weeks) was “negative (inactive)”.
Regarding `CC(=O)OC/C=C(C)/C=C/C=C(C)/C=C/C1=C(C)CCCC1(C)C`, the TD50 by setting is: (rat, strain F344/DuCrj, females, in drinking water, site: adrenal medulla, lesion: pheochromocytoma, malignant, dosed 104 weeks, study length 108 weeks) 7340 mg/kg/day; (rat, strain F344/DuCrj, females, in drinking water, site: adrenal medulla, lesion: pheochromocytoma, dosed 104 weeks, study length 108 weeks) 227 mg/kg/day; (rat, strain F344/DuCrj, females, in drinking water, site: liver, lesion: neoplastic nodule, dosed 104 weeks, study length 108 weeks) 7340 mg/kg/day; (rat, strain F344/DuCrj, males, in drinking water, site: adrenal medulla, lesion: pheochromocytoma, malignant, dosed 104 weeks, study length 108 weeks) 552 mg/kg/day; (rat, strain F344/DuCrj, males, in drinking water, site: adrenal medulla, lesion: pheochromocytoma, dosed 104 weeks, study length 108 weeks) 86.4 mg/kg/day; (rat, strain F344/DuCrj, males, in drinking water, site: liver, lesion: cholangioma, dosed 104 weeks, study length 108 weeks) 6470 mg/kg/day. The molecule further had a TD50 (rat, strain F344/DuCrj, males, in drinking water, site: liver, lesion: neoplastic nodule, dosed 104 weeks, study length 108 weeks) of 2060 mg/kg/day; a TD50 (rat, strain F344/DuCrj, males, in drinking water, site: liver, lesion: several types, types named in the paper, dosed 104 weeks, study length 108 weeks) of 3670 mg/kg/day; a TD50 (rat, strain F344/DuCrj, males, in drinking water, site: spleen, lesion: mononuclear-cell leukemia, dosed 104 weeks, study length 108 weeks) of 548 mg/kg/day; a TD50 (rat, strain F344/DuCrj, males, in drinking water, site: thyroid gland, lesion: c-cell adenoma, dosed 104 weeks, study length 108 weeks) of 671 mg/kg/day; a TD50 (rat, strain F344/DuCrj, males, in drinking water, site: thyroid gland, lesion: several types, types named in the paper, dosed 104 weeks, study length 108 weeks) of 976 mg/kg/day. In addition, the carcinogen call (rat, strain F344/DuCrj, males, in drinking water, site: forestomach, lesion: neoplasm, dosed 52 weeks, study length 52 weeks) is “negative (inactive)”.

Usually TD50 stands for the dose at which the toxic effect under study appears in half of the subjects.
